# Source: patent US20260265267A1, “NOVEL COMPOUNDS WITH MTORC2-INHIBITORY ACTIVITY AND USES THEREOF” (Aliad Biopharma, priority 2023, published 2026)
# What was measured:
# [1] = system: 5×FAD Alzheimer's disease model mice; assay: Passive avoidance test in 5×FAD mice (long-term memory); type: in vivo
# Procedure: (§1) In order to evaluate the efficacy of HN2210, HN2213, and HN2313 on Alzheimer's disease-related symptoms, specifically regarding 1) memory and cognitive impairment, 2) amyloid plaques, 3) neurofibrillary tangles (NFTs), and 4) brain inflammation, an in vivo efficacy assessment of HN2210, HN2213 and HN2313 was conducted using 5×FAD Alzheimer's disease model mice. The 5×FAD mice were purchased from Jackson Lab, USA (Cat #034840-JAX) and crossed once with C57bl6 mice to produce F1 heterozygous offspring (Het). The compound was administered via intraperitoneal injection to 6-month-old 5×FAD Het mice, followed by behavioral testing. The normal control mice, which were littermates of the 5×FAD Het mice, were aged to 6 months and received DMSO injection at the same volume.
# Specifically, to mice trained to avoid bright light three times daily, an electric foot shock (1 mA, 300 g) was applied for 3 seconds in a dark room at the same time on the next day. After 24 hours, the mice were placed again in the same room, and the avoidance response by light, that is, the time taken to move from the bright room to the dark room was measured. At 24 hours after habituation training, the mice were placed back into the bright room, and the latency time for entering the dark room was recorded over a period of 720 seconds.
# [2] = system: amyloid plaques in the brain of 5×FAD mouse; assay: Amyloid plaque removal in the brain of 5×FAD mice (6E10 antibody, thioflavin-S staining); type: in vivo; conditions: 5 mg/kg, 14 days
# Procedure: as §1
# In order to assess the amyloid plaque removal effect of HN2210, HN2213, and HN2313 compounds in the brains of Alzheimer's disease model mice, the following test was conducted using 5×FAD-DMSO mice without compound treatment, 5×FAD mice treated with HN2210, HN2213, or HN2313 compounds, and normal mice as controls.
# Specifically, brain slices sectioned in the coronal plane were selected for every fifth slice from the anterior to the posterior parts of the brain and stained with the 6E10 antibody or thioflavin-S. The 6E10 antibody stains both […] and amyloid plaques, while thioflavin-S specifically stains amyloid plaques. DNA was co-stained with DAPI. The dentate gyrus (DG) region of the hippocampus, where amyloid plaques tend to accumulate heavily, was examined using a confocal scanning microscope, and the images are shown in FIGS. 9a to 9c.
# mTORC1 = target: T1, mTORC1 (Homo sapiens, UniProt P42345); assay: mTORC1 inhibitory activity in HeLa cells (p70S6K Thr389 phosphorylation, Western blot); type: cell-based; conditions: 9 hours; for remaining activity at 40 µM: read-out: pThr389-S6K/S6K (% control)
# T1 construct: the following experiments were conducted in HeLa cells; endogenous in cells; host or cells: HeLa
# Method in brief: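 HeLa cells treated with compounds at 40 μM for 9 hours, lysed in RIPA, and equal protein analysed by Western blot. Phospho-p70S6K (Thr389) signal normalized to total p70S6K and expressed as percent of DMSO vehicle control.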
# LC3-II = LC3-II levels in primary cultured cerebral neurons; type: cell-based, SD mice; conditions: for effect on LC3-II: 500 nM or 100 nM, time course to 24 hours; for LC3-II (% control): 24 hours
# Procedure: Specifically, primary neural cells were cultured from the cerebral cortex of E16 embryos of SD […] with a gestational age 16-day (Orient Bio). The extracted brain was separated into the left and right hemispheres, the meninges were removed, and the brains were treated with trypsin in Ca^2+/Mg^2+-free HBSS solution. […] The cells were seeded at a density of 19,000 cells/cm^2 onto 35 mm culture dishes coated with 50 μg/ml poly-D-Lysine (Sigma, P0899) and 1 μg/ml laminin (Invitrogen, 23017-015), and then maintained in neurobasal complete media supplemented with B27 (Gibco, 17504-044) in a 5% CO2 incubator.
# Therefore, the evaluation of mTORC2 inhibitory activity in primary cultured cerebral cells was conducted using the same method as in Experimental Example 1, except that each compound was treated at concentrations of 500 nM or 100 nM for 24 hours. The time-dependent changes in Akt Ser473 phosphorylation, Akt Thr308 phosphorylation, and LC3-II levels were measured by Western blot analysis.
# mTORC2 = target: T2, mTORC2 (Homo sapiens, UniProt P42345); assay: mTORC2 inhibitory activity in HeLa cells (Akt Ser473 phosphorylation, Western blot); type: cell-based; conditions: for selective inhibition of mTORC2: 40 μM, versus mTORC1; for selective inhibition of mTORC2 / remaining activity at 40 µM: 9 hours; for remaining activity at 40 µM: read-out: pSer473-AKT/AKT (% control)
# T2 construct: the following experiments were conducted in HeLa cells; endogenous in cells; host or cells: HeLa
# Method in brief: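 HeLa cells treated with compounds at 40 μM for 9 hours, then lysed and analysed by Western blot with chemiluminescent detection. Phospho-Akt Ser473 signal normalised to total Akt and expressed as percent of DMSO vehicle control.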
# [3] = 5 mg/kg, 14 days / 2 weeks (FIG. 7)
SMILES,"passive avoidance latency time, % of the normal control level ([1]; 0.2 mg/kg, 14 days (FIG. 8d))","passive avoidance latency time, increase compared to 5×FAD-DMSO mice ([1]; 0.2 mg/kg, 14 days (FIG. 8d))","passive avoidance latency time, % of the normal control level ([1]; 1 mg/kg, 14 days (FIG. 8d))","passive avoidance latency time, increase compared to 5×FAD-DMSO mice ([1]; 1 mg/kg, 14 days (FIG. 8d))","passive avoidance latency time, increase compared to 5×FAD-DMSO mice ([1]; 5 mg/kg, 14 days (FIG. 7))","passive avoidance latency time, % of the normal control level ([1]; 5 mg/kg, 14 days (FIG. 8d))","passive avoidance latency time, increase compared to 5×FAD-DMSO mice ([1]; 5 mg/kg, 14 days (FIG. 8d))","passive avoidance latency time, % of the normal control level [1, 3]",reduction of 6E10 signals in the dentate gyrus compared to the 5×FAD-DMSO group [2],reduction of thioflavin-S signals in the dentate gyrus compared to the 5×FAD-DMSO group [2],effect on S6K Thr389 phosphorylation (mTORC1; 40 μM),remaining activity at 40 µM (mTORC1),effect on LC3-II (LC3-II),LC3-II (% control) (LC3-II; 500 nM),selective inhibition of mTORC2 (mTORC2),remaining activity at 40 µM (mTORC2),increase in S6K Thr389 phosphorylation (mTORC1; 40 μM),LC3-II (% control) (LC3-II; 100 nM),"inhibition at 40 µM (mTORC2; HeLa, 9 h, read-out: reduction in Akt Ser473 phosphorylation compared to the control group)"
"O=C1c2cc(F)c(N3CCOCC3)cc2COc2cc3c(cc21)OCO3 [HN2210, 8-(morpholino)-9-fluoro[2]benzoxepino[3,4-f]-1,3-benzodioxol-11(6H)-one]",approximately 56%,2.97 fold,~83%,4.39 fold,5.16 fold,~97%,5.16 fold,approximately 84%,53%,38%,no effect,107%,markedly increased,348 % control,selectively inhibit mTORC2,43%,,,
"O=C1c2cc(F)c(NCc3ccccc3)cc2COc2cc3c(cc21)OCO3 [HN2213, 8-(benzylamino)-9-fluoro[2]benzoxepino[3,4-f]-1,3-benzodioxol-11(6H)-one]",,,,,4.52 fold,,,~74%,29%,28%,,114%,significantly increased,336 % control,selectively inhibit mTORC2,51%,14%,,
"O=C1c2cc(F)c(NC3CCCC3)cc2COc2cc3c(cc21)OCO3 [HN2313, 8-(cyclopentylamino)-9-fluoro-[1,3]dioxolo[4′,5′:4,5]benzo[1,2-b]benzo[e]oxepin-11(6H)-one]",,,,,5.86 fold,,,~96%,38%,35%,,54%,not affected,,,80%,,86 % control,> 20%
